Results from patent US12275731B2, “Azaindole inhibitors of wild-type and mutant forms of LRRK2” (DANA-FARBER CANCER INSTITUTE, INC., priority 2018, dated 2025).

Columns and labels:
Test in all cases: KinomeScan profiling
Type in all cases: binding
[1] = target: FAK (Homo sapiens, UniProt Q05397); conditions: read-out: % control
Summary of the method: (§1)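 Luminescence (RLU) was converted to percent of control, with DMSO set as 100% and a reference compound as 0%. Test compounds were run at 1 μM against 468 kinases. Kinases showing below 35% of control were scored as bound.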

[2] = target: T1, RSK4(Kin.Dom.2-C-terminal) (Homo sapiens, UniProt Q9UK32); conditions: read-out: % control
T1 construct: RSK4(Kin.Dom.2-C-terminal)
T1 sequence (Q9UK32 426-683 limits assumed): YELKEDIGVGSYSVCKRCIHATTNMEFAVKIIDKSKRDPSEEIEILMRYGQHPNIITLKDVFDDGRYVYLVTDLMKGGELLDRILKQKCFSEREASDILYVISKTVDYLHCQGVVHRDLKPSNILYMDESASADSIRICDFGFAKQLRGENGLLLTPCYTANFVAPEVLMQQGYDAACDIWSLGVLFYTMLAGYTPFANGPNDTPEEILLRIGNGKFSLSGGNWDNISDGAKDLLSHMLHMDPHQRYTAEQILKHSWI
Summary of the method: as §1

[3] = target: T2, PRKD3 (Homo sapiens, UniProt O94806); conditions: PRKD3, 1 μM; read-out: % control
T2 sequence (O94806 1-890): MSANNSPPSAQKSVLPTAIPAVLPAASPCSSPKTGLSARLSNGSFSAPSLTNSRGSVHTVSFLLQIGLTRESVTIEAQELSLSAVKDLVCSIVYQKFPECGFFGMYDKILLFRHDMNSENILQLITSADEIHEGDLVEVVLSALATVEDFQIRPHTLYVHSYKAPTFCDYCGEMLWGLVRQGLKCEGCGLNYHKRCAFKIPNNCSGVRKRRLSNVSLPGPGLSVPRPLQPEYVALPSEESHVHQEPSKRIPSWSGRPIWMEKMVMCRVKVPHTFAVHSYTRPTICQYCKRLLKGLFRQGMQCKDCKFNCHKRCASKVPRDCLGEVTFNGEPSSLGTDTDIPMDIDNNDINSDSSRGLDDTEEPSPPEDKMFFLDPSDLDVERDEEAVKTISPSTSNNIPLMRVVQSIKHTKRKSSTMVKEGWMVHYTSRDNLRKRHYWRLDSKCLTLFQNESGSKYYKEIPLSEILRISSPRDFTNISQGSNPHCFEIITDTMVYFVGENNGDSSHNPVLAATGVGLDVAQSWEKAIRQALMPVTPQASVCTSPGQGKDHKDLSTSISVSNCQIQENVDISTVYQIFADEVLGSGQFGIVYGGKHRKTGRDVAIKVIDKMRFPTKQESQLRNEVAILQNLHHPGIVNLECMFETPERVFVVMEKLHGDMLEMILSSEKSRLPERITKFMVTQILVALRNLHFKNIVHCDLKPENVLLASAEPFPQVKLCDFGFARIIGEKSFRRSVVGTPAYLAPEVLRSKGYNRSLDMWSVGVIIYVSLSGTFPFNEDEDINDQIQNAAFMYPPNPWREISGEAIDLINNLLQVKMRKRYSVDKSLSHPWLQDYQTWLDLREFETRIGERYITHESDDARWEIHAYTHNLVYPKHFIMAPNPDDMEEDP
Summary of the method: as §1

[4] = target: T3, EPHA3 (Homo sapiens, UniProt P29320); conditions: EPHA3, 1 μM; read-out: % control
T3 sequence (P29320 21-983): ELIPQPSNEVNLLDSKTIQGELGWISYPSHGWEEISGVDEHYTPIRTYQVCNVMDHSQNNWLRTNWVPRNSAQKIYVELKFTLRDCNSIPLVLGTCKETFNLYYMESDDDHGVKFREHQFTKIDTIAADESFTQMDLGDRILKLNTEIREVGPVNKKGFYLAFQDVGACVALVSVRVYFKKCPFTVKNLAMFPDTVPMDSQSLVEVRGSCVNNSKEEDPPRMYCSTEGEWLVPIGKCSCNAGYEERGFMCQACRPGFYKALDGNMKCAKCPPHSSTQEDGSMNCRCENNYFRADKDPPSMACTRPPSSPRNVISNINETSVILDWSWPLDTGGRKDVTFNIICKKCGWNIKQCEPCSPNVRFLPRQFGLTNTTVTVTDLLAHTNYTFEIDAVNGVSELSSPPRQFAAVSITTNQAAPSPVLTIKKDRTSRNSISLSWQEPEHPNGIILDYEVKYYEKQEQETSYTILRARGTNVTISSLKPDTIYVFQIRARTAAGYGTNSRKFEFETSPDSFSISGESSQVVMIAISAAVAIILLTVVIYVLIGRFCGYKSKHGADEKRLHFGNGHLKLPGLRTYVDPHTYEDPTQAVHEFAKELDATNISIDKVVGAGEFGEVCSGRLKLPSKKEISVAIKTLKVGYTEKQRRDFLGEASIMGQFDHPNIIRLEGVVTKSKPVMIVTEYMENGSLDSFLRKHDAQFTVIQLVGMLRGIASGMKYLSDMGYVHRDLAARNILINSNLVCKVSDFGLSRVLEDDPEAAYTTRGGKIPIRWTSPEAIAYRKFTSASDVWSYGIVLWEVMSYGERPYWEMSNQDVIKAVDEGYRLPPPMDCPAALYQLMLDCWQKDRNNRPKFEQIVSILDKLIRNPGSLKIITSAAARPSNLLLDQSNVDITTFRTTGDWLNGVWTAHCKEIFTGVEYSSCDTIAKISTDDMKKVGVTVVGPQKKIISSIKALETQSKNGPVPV
Summary of the method: (§2)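 First, compounds in DMSO are added at 1 μM to each of 468 kinase assays. Next, RLU signals are normalised between positive control (0%) and DMSO (100%). Finally, kinases under 35% are flagged active.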

[5] = target: ERK5 (Homo sapiens, UniProt Q13164); conditions: ERK5, 1 μM; read-out: % control
Summary of the method: as §1

[6] = target: BUB1 (Homo sapiens, UniProt O43683); conditions: BUB1, 1 μM; read-out: % control
Summary of the method: as §1

[7] = target: YANK3 (Homo sapiens, UniProt Q86UX6); conditions: YANK3, 1 μM; read-out: % control
Summary of the method: as §1

[8] = target: TIE2 (Homo sapiens, UniProt Q02763); conditions: TIE2, 1 μM; read-out: % control
Summary of the method: as §1

[9] = target: EPHA7 (Homo sapiens, UniProt Q15375); conditions: EPHA7, 1 μM; read-out: % control
Summary of the method: as §2

Sequence of BUB1 (O43683 whole entry): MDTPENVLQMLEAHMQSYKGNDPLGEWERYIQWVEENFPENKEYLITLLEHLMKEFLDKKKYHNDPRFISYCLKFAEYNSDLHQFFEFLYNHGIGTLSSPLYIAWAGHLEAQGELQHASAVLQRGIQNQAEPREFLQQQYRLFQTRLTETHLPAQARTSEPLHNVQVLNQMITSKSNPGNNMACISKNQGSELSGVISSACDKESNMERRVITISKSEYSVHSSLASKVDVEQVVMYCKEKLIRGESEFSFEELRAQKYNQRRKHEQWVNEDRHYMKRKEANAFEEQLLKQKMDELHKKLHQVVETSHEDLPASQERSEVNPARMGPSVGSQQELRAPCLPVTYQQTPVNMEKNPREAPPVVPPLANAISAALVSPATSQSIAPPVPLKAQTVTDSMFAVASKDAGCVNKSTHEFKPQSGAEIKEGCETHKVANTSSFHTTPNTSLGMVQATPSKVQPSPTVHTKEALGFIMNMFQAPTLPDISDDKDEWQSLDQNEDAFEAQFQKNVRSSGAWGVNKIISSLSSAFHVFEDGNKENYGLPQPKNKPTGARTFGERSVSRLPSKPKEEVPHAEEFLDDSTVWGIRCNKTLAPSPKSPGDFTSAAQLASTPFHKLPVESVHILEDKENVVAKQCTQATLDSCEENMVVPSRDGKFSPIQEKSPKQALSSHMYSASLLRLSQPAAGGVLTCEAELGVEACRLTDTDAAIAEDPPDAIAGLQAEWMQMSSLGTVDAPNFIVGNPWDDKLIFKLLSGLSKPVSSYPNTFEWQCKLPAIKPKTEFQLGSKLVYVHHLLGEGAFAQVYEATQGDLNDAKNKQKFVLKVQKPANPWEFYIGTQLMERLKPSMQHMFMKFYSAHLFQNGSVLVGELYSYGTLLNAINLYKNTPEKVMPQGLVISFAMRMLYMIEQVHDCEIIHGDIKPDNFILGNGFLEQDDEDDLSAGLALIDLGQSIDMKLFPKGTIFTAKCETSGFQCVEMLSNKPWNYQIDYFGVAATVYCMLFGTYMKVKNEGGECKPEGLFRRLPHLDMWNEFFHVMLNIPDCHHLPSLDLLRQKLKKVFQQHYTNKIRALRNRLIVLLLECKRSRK
Sequence of FAK (Q05397 whole entry): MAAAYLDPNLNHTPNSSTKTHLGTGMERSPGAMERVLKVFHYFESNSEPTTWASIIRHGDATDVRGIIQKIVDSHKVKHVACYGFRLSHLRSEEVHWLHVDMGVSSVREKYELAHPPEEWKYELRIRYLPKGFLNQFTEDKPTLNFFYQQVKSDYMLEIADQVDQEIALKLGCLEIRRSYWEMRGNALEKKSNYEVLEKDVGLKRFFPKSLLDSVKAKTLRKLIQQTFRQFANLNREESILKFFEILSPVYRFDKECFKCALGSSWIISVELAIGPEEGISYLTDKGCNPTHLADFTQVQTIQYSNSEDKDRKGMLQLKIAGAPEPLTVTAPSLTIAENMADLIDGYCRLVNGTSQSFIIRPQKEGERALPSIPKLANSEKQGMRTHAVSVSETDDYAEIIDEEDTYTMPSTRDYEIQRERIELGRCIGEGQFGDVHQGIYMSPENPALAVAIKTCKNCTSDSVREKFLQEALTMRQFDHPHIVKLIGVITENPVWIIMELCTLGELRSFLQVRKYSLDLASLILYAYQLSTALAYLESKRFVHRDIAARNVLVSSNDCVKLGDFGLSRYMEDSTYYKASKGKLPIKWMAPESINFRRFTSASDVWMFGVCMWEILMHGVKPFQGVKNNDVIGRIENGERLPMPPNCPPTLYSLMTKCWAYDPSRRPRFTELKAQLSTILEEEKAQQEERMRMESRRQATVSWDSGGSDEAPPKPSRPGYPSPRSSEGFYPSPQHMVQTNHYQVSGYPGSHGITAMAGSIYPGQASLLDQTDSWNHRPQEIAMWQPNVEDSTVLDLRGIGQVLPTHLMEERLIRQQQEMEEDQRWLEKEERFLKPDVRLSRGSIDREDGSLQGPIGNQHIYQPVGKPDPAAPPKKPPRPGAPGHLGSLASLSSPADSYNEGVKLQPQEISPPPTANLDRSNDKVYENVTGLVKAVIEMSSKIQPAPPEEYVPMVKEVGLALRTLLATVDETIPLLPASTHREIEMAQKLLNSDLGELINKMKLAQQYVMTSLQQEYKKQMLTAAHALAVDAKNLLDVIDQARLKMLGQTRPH
Sequence of YANK3 (Q86UX6 whole entry): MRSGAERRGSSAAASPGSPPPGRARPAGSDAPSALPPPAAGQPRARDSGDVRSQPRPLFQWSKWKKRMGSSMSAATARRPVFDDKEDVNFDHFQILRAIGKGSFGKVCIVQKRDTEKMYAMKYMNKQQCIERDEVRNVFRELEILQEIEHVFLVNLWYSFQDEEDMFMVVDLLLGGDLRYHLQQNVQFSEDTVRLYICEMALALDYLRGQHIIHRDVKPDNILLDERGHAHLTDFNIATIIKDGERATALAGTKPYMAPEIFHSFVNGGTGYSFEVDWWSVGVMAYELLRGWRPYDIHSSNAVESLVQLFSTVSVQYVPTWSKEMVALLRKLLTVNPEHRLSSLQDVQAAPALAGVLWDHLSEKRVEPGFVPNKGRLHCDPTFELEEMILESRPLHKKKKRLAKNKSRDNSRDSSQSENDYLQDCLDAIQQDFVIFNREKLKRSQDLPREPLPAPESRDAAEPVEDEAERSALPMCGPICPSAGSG
Sequence of TIE2 (Q02763 23-1124): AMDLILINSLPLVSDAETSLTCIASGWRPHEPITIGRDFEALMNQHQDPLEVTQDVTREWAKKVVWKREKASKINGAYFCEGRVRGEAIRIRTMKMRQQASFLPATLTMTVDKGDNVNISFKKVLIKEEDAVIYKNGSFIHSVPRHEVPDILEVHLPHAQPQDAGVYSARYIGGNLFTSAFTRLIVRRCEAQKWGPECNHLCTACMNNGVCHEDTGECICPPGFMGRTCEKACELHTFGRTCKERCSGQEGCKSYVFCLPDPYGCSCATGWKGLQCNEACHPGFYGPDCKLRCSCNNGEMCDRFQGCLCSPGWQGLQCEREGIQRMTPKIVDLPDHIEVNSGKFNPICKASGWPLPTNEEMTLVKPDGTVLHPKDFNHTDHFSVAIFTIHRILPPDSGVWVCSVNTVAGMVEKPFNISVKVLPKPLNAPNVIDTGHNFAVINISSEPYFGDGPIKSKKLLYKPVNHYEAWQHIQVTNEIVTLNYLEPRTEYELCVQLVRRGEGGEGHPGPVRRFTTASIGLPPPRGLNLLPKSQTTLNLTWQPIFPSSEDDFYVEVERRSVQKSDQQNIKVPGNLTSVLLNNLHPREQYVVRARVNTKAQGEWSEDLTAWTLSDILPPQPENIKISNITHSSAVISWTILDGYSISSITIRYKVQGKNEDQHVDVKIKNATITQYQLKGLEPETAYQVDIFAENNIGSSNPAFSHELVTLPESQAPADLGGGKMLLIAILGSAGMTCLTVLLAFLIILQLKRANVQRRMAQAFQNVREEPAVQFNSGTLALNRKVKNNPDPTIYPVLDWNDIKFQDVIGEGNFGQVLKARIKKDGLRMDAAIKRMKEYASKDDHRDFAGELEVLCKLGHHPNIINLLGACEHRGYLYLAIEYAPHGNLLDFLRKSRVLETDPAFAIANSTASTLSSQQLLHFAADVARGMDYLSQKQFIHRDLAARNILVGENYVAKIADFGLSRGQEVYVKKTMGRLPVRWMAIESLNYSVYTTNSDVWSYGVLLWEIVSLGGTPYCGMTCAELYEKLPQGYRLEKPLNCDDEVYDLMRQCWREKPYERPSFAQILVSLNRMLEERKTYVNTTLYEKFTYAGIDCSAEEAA
Sequence of ERK5 (Q13164 whole entry): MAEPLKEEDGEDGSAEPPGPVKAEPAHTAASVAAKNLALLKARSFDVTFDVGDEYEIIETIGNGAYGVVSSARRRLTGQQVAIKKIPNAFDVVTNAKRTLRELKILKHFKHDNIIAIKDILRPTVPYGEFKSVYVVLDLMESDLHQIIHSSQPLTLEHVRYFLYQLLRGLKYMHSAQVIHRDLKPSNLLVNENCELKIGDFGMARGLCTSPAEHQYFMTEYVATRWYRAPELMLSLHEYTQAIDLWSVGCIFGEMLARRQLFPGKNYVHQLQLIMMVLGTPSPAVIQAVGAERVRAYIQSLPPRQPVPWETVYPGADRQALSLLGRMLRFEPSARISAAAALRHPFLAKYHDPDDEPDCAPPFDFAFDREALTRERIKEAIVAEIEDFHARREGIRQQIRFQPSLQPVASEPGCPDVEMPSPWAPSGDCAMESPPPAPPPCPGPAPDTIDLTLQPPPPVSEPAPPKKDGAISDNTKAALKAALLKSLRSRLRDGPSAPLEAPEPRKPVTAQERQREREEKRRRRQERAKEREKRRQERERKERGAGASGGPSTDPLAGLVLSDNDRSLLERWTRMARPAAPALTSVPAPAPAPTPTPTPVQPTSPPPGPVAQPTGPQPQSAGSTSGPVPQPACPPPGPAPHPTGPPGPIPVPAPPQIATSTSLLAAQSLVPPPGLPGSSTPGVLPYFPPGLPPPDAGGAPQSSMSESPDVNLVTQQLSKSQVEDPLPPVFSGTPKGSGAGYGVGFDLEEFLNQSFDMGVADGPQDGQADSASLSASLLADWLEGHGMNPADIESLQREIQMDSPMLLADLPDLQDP

With CNc1c(-c2ccc(C(=O)N3CCC(N4CCOCC4)CC3)cc2)cnc2[nH]cc(Cl)c12 [Compound 96, (4-(3-chloro-4-(methylamino)-1H-pyrrolo[2,3-b]pyridin-5-yl)phenyl)(4-morpholinopiperidin-1-yl)methanone] the remaining binding at 1 µM [1] was 65%, the remaining binding at 1 µM [2] was 91% and the remaining binding at 1 µM [3] was 13%. The remaining binding at 1 µM [4] was 100%, the remaining binding at 1 µM [5] was 81% and the remaining binding at 1 µM [6] was 86%. It also gave a remaining binding at 1 µM [7] of 99%, a remaining binding at 1 µM [8] of 81% and a remaining binding at 1 µM [9] of 96%.

With O=C(c1ccc(-c2cnc3[nH]cc(Cl)c3c2NC2CCCC2)cc1)N1CCC(N2CCOCC2)CC1 [Compound 101, (4-(3-chloro-4-(cyclopentylamino)-1H-pyrrolo[2,3-b]pyridin-5-yl)phenyl)(4-morpholinopiperidin-1-yl)methanone] the remaining binding at 1 µM [1] was 71%, the remaining binding at 1 µM [2] was 88% and the remaining binding at 1 µM [3] was 35%. For the same compound, the remaining binding at 1 µM [4] was 82%, the remaining binding at 1 µM [5] was 100% and the remaining binding at 1 µM [6] was 100%. For the same compound, the remaining binding at 1 µM [7] was 57%, the remaining binding at 1 µM [8] was 97% and the remaining binding at 1 µM [9] was 96%.

CNc1c(-c2cnn([C@H]3CCN(C(C)=O)C[C@@H]3F)c2)cnc2[nH]cc(Cl)c12 [Compound 77, 1-((3S,4S)-4-(4-(3-chloro-4-(methylamino)-1H-pyrrolo[2,3-b]pyridin-5-yl)-1H-pyrazol-1-yl)-3-fluoropiperidin-1-yl)ethan-1-one] showed a remaining binding at 1 µM [1] of 90%, a remaining binding at 1 µM [2] of 98% and a remaining binding at 1 µM [3] of 56%. It also gave a remaining binding at 1 µM [4] of 90%, a remaining binding at 1 µM [5] of 100% and a remaining binding at 1 µM [6] of 80%. The remaining binding at 1 µM [7] was 97%, the remaining binding at 1 µM [8] was 80% and the remaining binding at 1 µM [9] was 78%.
